Measured values published in patent US10864210B2, “Composition and combined medication method for treating enterovirus infection” (priority 2016, dated 2020).

Columns and labels:
Assay type in all cases: cell-based, Enterovirus 71
[1] = system: EV71; test: Evaluation experiment for compounds: inhibition of EV71-induced CPE in RD cells (CellTiter-Glo); settings: single compound, 2-fold dilutions
Procedure: Itraconazole purchased from Sigma-Aldrich is dissolved in DMSO to a final concentration of 10 mM; suramin purchased from Bayer is dissolved in a medium containing 2% FBS to a final concentration of 50 mM; favipiravir purchased from Chembest is dissolved in DMSO to a final concentration of 400 mM; rupintrivir purchased from Santa Cruz is dissolved in DMSO to a final concentration of 2 mM; and GW5074 purchased from Sigma is dissolved in DMSO to a final concentration of 10 mM. To evaluate the inhibition of EV71-induced CPE activity by five compounds, the inventors perform dose dependent experiments.
The raw data are input into an Excel sheet to calculate the signal-to-background ratio (S/B), the signal-to-noise ratio (S/N), Z factor, and the inhibition rate of the test compound against the virus. […] The antiviral activity of the compound CPE inhibition rate=(μcpd−μv)/(μc−μv)×100%, wherein μcpd represents the average signal intensity of the test compound; and the effect of the compound on the cell, cell survival rate=μcpd/μc×100%. The half maximum effect concentration (EC50) is a concentration that causes a 50% maximum effect. The half-cytotoxic concentration (CC50) refers to a concentration of the medicament that causes 50% cytotoxicity, which is expressed in this experiment as a 50% reduction in the fluorescence intensity of the experimental group compared with the control group.
(A) 2-fold dilution of itraconazole, rupintrivir, favipiravir, suramin, and GW5074 were separately added to RD cells, and virus or medium was added and cultured for 96 hours. The cell viability was measured by CellTiter-Glo kit. The inhibitory effects of […] compounds on EV71 and the toxic effects on cells were examined. (B) Virus and 2-fold dilution of itraconazole, rupintrivir, favipiravir, suramin, and GW5074 were separately added into RD cells. After 48 hours of culture, the supernatant was collected and the viral titer was determined by TCID50 method. The results were processed using Graphpad Prism5. The data in the figure were obtained from two independent parallel experiments, and the error bars represent the standard deviation of the two parallel experiments.

[2] = system: EV71 containing 3D protein mutation; test: Mutant virus resistance experiment based on cytopathic effect in Vero cells; settings: CPE-based
Procedure: To determine the resistance of the selected mutant virus and recombinant virus to the compound, the inventors conduct experiments based on cytopathic effects and viral titer reduction experiments. […] EV71 G082 strain is served as a control.
The supernatant from the 16th passage culture was collected and sequenced. EV71 containing 3D protein mutation was constructed by reverse genetics system. The viral titer was determined by plaque formation assay, the virus resistance to favipiravir was detected by viral titer reduction experiment. The experimental method was the same as the compound verification experiment. (B) The effects of itraconazole, rupintrivir, suramin and GW5074 on a virus containing 3D protein mutation were determined using an experiment based on cytopathic effect. The results were processed using Graphpad Prism5. The data in the figure were obtained from two independent parallel experiments, and the error bars represent the standard deviation of the two parallel experiments.

[3] = system: EV71 having amino acid residue mutation at position 121 in the 3D protein; test: Favipiravir resistance screening and viral titer reduction experiment in Vero cells; settings: viral titer reduction
Procedure: (§1) RD cells are seeded in a 12-well plate with 3×10^5 cells/well, cultured overnight at 37° C. for 24 hours. Then EV71 virus solution with MOI=0.1 and 2-fold dilution of itraconazole, rupintrivir, favipiravir, suramin and GW5074 are added and cultured at 37° C. for 48 h. The supernatant is collected, frozen in a −80° C. refrigerator, and then determined for viral titer. To determine the resistance of the passaged virus to favipiravir, the inventors inoculate Vero cells in a 12-well plate, 3×10^5 cells/well and culture overnight at 37° C. After 24 hours, EV71 virus solution with MOI=0.1 is added and 300 μM and 600 μM favipiravir are separately added. After cultured at 37° C. for 48 hours, the supernatant is collected and frozen in a −80° C. refrigerator, and then the viral titer is measured.
The present inventors conduct a passage experiment to screen a favipiravir resistant strain. 3×10^5 Vero cells are seeded in a 12-well plate, cultured overnight at 37° C. […] After 16 continuous passages, the titer of the virus in the supernatant, the resistance to the compound, and sequencing are determined. […]
The supernatant from the 16th passage culture was collected and sequenced. […] The viral titer was determined by plaque formation assay, the virus resistance to favipiravir was detected by viral titer reduction experiment. […]

[4] = system: EV71; test: Viral titer reduction experiment (single compound)
Procedure: as §1
EV71, itraconazole, and 0.5 μM or 1 μM of rupintrivir were simultaneously added to Vero cells, the virus was subcultured, and the supernatant was collected.

Row | SMILES | inhibition of EV71 infection of cells [1] | cross-resistance of favipiravir-resistant mutant virus compared with wild type virus (G082) [2] | resistance of EV71 with position 121 3D protein mutation to the compound [3] | removal of viruses in the cell culture by single compound [4]
1 | O=C1Nc2ccc(I)cc2/C1=C/c1cc(Br)c(O)c(Br)c1 [GW5074] | effective in inhibiting EV71 infection of cells in a dose-dependent manner | no cross-resistance was found | – | –
2 | NC(=O)c1nc(F)cnc1O [favipiravir] | effective in inhibiting EV71 infection of cells in a dose-dependent manner | – | resistant | –
3 | CCC(C)n1ncn(-c2ccc(N3CCN(c4ccc(OCC5COC(Cn6cncn6)(c6ccc(Cl)cc6Cl)O5)cc4)CC3)cc2)c1=O (centres unmarked) [itraconazole] | effective in inhibiting EV71 infection of cells in a dose-dependent manner | no cross-resistance was found | – | could not remove all the viruses in the cell culture
4 | CCOC(=O)/C=C/[C@H](C[C@@H]1CCNC1=O)NC(=O)[C@@H](CC(=O)[C@@H](NC(=O)c1cc(C)on1)C(C)C)Cc1ccc(F)cc1 [rupintrivir] | effective in inhibiting EV71 infection of cells in a dose-dependent manner | no cross-resistance was found | – | –
5 | Cc1ccc(C(=O)Nc2ccc(S(=O)(=O)O)c3cc(S(=O)(=O)O)cc(S(=O)(=O)O)c23)cc1NC(=O)c1cccc(NC(=O)Nc2cccc(C(=O)Nc3cc(C(=O)Nc4ccc(S(=O)(=O)O)c5cc(S(=O)(=O)O)cc(S(=O)(=O)O)c45)ccc3C)c2)c1 [suramin] | effective in inhibiting EV71 infection of cells in a dose-dependent manner | no cross-resistance was found | – | –
